Here are results for 2 molecules from paper PMC4227753, “Mycobacterium smegmatis DinB2 misincorporates deoxyribonucleotides and ribonucleotides during templated synthesis and lesion bypass” (Nucleic Acids Research, 2014).

By Kd is commonly meant a measure of binding affinity in units of concentration.

Structures are written as SMILES.

The target of the assay is T1, DinB2 (Mycolicibacterium smegmatis, UniProt A0QR77).
T1 construct: gene dinB
Nature of the assay: single-turnover primer extension, kobs vs [NTP], one-site fit. The class given is biochemical. To be noted: 5 mM MgCl2, 10 mM Tris-HCl pH 7.5, 37 C, 1 uM DinB2, 50 nM 13-mer/18-mer primer-template.

T1 sequence (A0QR77 entry or part of it): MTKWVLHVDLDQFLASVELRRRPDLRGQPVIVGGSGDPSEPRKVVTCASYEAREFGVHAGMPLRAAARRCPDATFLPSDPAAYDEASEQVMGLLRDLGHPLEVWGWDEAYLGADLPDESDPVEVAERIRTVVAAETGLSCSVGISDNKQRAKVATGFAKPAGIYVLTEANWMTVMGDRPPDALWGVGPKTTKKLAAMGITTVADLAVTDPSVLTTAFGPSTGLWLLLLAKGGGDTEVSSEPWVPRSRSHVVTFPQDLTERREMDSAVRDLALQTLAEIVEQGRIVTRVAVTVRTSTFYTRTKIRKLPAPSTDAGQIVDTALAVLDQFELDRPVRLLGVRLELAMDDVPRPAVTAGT

Molecule `O=c1ccn([C@@H]2O[C@H](COP(=O)(O)OP(=O)(O)OP(=O)(O)O)[C@@H](O)[C@H]2O)c(=O)[nH]1` [UTP] gave a Kd (mispair: opposite template dC (oligo-dC5 tail)) of 412 µM.

`Nc1nc2c(ncn2[C@@H]2O[C@H](COP(=O)(O)OP(=O)(O)OP(=O)(O)O)[C@@H](O)[C@H]2O)c(=O)[nH]1` [GTP] registered a Kd (mispair: opposite template dT (oligo-dT5 tail)) of 386 µM.
